Laboratory results reported in US10294207B2, “Pyrazole derivatives as TNIK, IKKϵ and TBK1 inhibitor and pharmaceutical composition comprising same” (GREEN CROSS CORPORATION, priority 2015, dated 2019).

Assays:
IKKε = biological target: T1, IKKε (Homo sapiens, UniProt Q14164); assay: IKKε inhibition, ADP-Glo Kinase Assay; format: biochemical; settings: luminometer
T1 construct: purchased Invitrogen PR8031B
T1 sequence (Q14164 1-716): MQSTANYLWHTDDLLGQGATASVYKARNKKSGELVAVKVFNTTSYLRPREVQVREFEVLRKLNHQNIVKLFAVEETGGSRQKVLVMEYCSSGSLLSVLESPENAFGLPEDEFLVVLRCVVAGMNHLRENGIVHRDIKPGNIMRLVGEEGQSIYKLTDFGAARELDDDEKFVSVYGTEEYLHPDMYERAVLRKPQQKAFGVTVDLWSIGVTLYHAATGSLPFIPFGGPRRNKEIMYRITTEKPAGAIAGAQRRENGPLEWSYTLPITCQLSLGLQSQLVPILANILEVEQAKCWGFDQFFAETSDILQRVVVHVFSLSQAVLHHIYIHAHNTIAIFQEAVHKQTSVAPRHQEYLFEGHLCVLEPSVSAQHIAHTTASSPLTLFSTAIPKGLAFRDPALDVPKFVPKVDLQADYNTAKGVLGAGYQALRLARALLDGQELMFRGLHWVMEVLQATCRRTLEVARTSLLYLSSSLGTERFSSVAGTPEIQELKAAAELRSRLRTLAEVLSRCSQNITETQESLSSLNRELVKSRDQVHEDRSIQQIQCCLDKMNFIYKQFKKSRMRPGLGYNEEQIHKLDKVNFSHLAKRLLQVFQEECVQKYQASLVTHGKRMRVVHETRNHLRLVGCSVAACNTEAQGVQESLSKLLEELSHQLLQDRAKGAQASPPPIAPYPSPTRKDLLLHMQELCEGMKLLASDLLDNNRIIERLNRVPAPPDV
Procedure: Inhibition activities on TNIK, IKKε and TBK1 were evaluated using the compounds of Examples 1 to 254.
The inhibition activities on TNIK, IKKε and TBK1 were measured by a luminometer, TNIK/IKKε/TBK1 Kinase Enzyme System (Promega, Ca# V4158; Invitrogen, PR8031B, Promega, Ca# V3991) and ADP-Glo Kinase Assay using ADP-Glo™ Kinase Analysis Kit (Promega, Ca# V9101) and a kinase reaction buffer [40 mM Tris(pH 7.5), 20 mM MgCl2, 0.1 mg/mL BSA] in accordance with the manufacturer's protocol.

TBK1 = biological target: T2, TBK1 (Homo sapiens, UniProt Q9UHD2); assay: TBK1 inhibition, ADP-Glo Kinase Assay; format: biochemical; settings: luminometer
T2 construct: purchased Promega V3991
T2 sequence (Q9UHD2 1-729): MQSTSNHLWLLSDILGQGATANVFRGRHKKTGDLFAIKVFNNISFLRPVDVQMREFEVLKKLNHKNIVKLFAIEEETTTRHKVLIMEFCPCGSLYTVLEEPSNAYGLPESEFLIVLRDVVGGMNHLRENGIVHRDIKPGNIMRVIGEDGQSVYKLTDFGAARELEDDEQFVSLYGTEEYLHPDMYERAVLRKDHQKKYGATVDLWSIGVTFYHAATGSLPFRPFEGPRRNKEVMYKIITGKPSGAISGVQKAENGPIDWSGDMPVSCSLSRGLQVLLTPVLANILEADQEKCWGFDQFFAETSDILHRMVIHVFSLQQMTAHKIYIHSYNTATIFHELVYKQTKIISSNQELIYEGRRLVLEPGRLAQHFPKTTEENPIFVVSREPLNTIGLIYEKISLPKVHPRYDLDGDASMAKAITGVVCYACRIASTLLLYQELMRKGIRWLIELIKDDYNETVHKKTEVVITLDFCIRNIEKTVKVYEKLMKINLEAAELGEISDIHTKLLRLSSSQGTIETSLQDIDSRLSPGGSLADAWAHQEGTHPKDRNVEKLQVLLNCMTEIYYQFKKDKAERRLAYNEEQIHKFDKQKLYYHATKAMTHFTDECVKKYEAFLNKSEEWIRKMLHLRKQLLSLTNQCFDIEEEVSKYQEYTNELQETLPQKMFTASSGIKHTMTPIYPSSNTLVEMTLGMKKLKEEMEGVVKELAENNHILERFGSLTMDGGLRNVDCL
In short: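 Each recombinant kinase enzyme system was run per the manufacturer's protocol in 40 mM Tris pH 7.5, 20 mM MgCl2 and 0.1 mg/mL BSA. Kinase activity was detected as ADP formation by ADP-Glo luminescence.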

Structure (SMILES)	IC50 (IKKε) [µM]	IC50 (TBK1) [µM]
C[C@H]1CN(c2ccc(C(=O)Nc3n[nH]c4ccc(C(=O)NC5(c6ccccc6)CC5)cc34)cc2)CCN1 [Example 76, (S)-3-(4-(3-Methylpiperazin-1-yl)benzamido)-N-(1-phenylcyclopropyl)-1H-indazole-5-carboxamide]	0.016	0.0046
C[C@@H]1CN(c2ccc(C(=O)Nc3n[nH]c4ccc(C(=O)NC5(c6ccccc6)CC5)cc34)cc2)CCN1 [Example 77, (R)-3-(4-(3-Methylpiperazin-1-yl)benzamido)-N-(1-phenylcyclopropyl)-1H-indazole-5-carboxamide]	0.018	0.0048
Cc1cc(C(=O)Nc2n[nH]c3ccc(C(=O)NCc4cccs4)cc23)ccc1N1CCOCC1 [Example 78, 3-(3-Methyl-4-morpholinobenzamido)-N-(thiophen-2-ylmethyl)-1H-indazole-5-carboxamide]	0.2	0.037
Cc1cc(C(=O)Nc2n[nH]c3ccc(C(=O)NCc4cccs4)cc23)ccc1N1CCN(C)CC1 [Example 79, 3-(3-Methyl-4-(4-methylpiperazin-1-yl)benzamido)-N-(thiophen-2-ylmethyl)-1H-indazole-5-carboxamide]	0.22	0.015
CC(NC(=O)c1ccc2[nH]nc(NC(=O)c3ccc(N4CCN(C)CC4)cc3)c2c1)c1ccsc1 (stereo not shown) [Example 80, 3-(4-(4-Methylpiperazin-1-yl)benzamido)-N-(1-(thiophen-3-yl)ethyl)-1H-indazole-5-carboxamide]	0.0074	0.0025
CC(NC(=O)c1ccc2[nH]nc(NC(=O)c3ccc(N4CCN(C)CC4)cc3)c2c1)c1ccco1 (stereo not shown) [Example 81, N-(1-(Furan-2-yl)ethyl)-3-(4-(4-methylpiperazin-1-yl)benzamido)-1H-indazole-5-carboxamide]	0.021	0.0039
CC(NC(=O)c1ccc2[nH]nc(NC(=O)c3ccc(N4CCN(C)CC4)cc3)c2c1)c1nccs1 (stereo not shown) [Example 82, 3-(4-(4-Methylpiperazin-1-yl)benzamido)-N-(1-(thiazol-2-yl)ethyl)-1H-indazole-5-carboxamide]	0.074	0.014
CC(NC(=O)c1ccc2[nH]nc(NC(=O)c3ccc(N4CCN(C)CC4)cc3)c2c1)c1cncs1 (stereo not shown) [Example 83, 3-(4-(4-Methylpiperazin-1-yl)benzamido)-N-(1-(thiazol-5-yl)ethyl)-1H-indazole-5-carboxamide]	0.047	0.011
CCC(NC(=O)c1ccc2[nH]nc(NC(=O)c3ccc(N4CCN(C)CC4)cc3)c2c1)c1nccs1 (stereo not shown) [Example 84, 3-(4-(4-Methylpiperazin-1-yl)benzamido)-N-(1-(thiazol-2-yl)propyl)-1H-indazole-5-carboxamide]	0.069	0.016
CN1CCN(c2ccc(C(=O)Nc3n[nH]c4ccc(C(=O)NCc5ccccn5)cc34)cc2)CC1 [Example 85, 3-(4-(4-Methylpiperazin-1-yl)benzamido)-N-(pyridin-2-ylmethyl)-1H-indazole-5-carboxamide bis(2,2,2-trifluoroacetate)]	1.63	0.16
O=C(NCc1ccccn1)c1ccc2[nH]nc(NC(=O)c3ccc(N4CCOCC4)cc3)c2c1 [Example 86, 3-(4-Morpholinobenzamido)-N-(pyridin-2-ylmethyl)-1H-indazole-5-carboxamide]	0.45	0.089
CN1CCN(c2ccc(C(=O)Nc3n[nH]c4ccc(C(=O)NCC5CCCCC5)cc34)cc2)CC1 [Example 87, N-(Cyclohexylmethyl)-3-(4-(4-methylpiperazin-1-yl)benzamido)-1H-indazole-5-carboxamide]	0.072	0.018
O=C(NCC1CCCCC1)c1ccc2[nH]nc(NC(=O)c3ccc(N4CCOCC4)cc3)c2c1 [Example 88, N-(Cyclohexylmethyl)-3-(4-morpholinobenzamido)-1H-indazole-5-carboxamide]	0.11	0.02
CC1CN(c2ccc(C(=O)Nc3n[nH]c4ccc(C(=O)NCc5cccs5)cc34)cc2)CC(C)N1 (stereo not shown) [Example 89, 3-(4-(3,5-Dimethylpiperazin-1-yl)benzamido)-N-(thiophen-2-ylmethyl)-1H-indazole-5-carboxamide 2,2,2-trifluoroacetate]	0.079	0.0056
CN1CCN(c2ccc(C(=O)Nc3n[nH]c4ccc(C(=O)NCC5CCCC5)cc34)cc2)CC1 [Example 90, N-(Cyclopentylmethyl)-3-(4-(4-methylpiperazin-1-yl)benzamido)-1H-indazole-5-carboxamide 2,2,2-trifluoroacetate]	0.21	0.013
O=C(NCC1CCCC1)c1ccc2[nH]nc(NC(=O)c3ccc(N4CCOCC4)cc3)c2c1 [Example 91, N-(Cyclopentylmethyl)-3-(4-morpholinobenzamido)-1H-indazole-5-carboxamide 2,2,2-trifluoroacetate]	0.093	0.0053
CC1CN(c2ccc(C(=O)Nc3n[nH]c4ccc(C(=O)NCc5cccs5)cc34)cc2)CC(C)O1 (stereo not shown) [Example 92, 3-(4-(2,6-Dimethylmorpholino)benzamido)-N-(thiophen-2-ylmethyl)-1H-indazole-5-carboxamide 2,2,2-trifluoroacetate]	0.065	0.007
CC(CCO)NC(=O)c1ccc2[nH]nc(NC(=O)c3ccc(N4CCN(C)CC4)cc3)c2c1 (stereo not shown) [Example 93, N-(4-Hydroxybutan-2-yl)-3-(4-(4-methylpiperazin-1-yl)benzamido)-1H-indazole-5-carboxamide]	1.04	0.19
CN1CCN(c2ccc(C(=O)Nc3n[nH]c4ccc(C(=O)NCc5c[nH]nn5)cc34)cc2)CC1 [Example 94, N-((1H-1,2,3-Triazol-4-yl)methyl)-3-(4-(4-methylpiperazin-1-yl)benzamido)-1H-indazole-5-carboxamide]	1.59	0.24
CCC(NC(=O)c1ccc2[nH]nc(NC(=O)c3ccc(N4CC(C)NC(C)C4)cc3)c2c1)c1cccs1 (stereo not shown) [Example 95, 3-(4-(3,5-dimethylpiperazin-1-yl)benzamido)-N-(1-(thiophen-2-yl)propyl)-1H-indazole-5-carboxamide 2,2,2-trifluoroacetate]	0.021	0.0028
CCC(NC(=O)c1ccc2[nH]nc(NC(=O)c3ccc(N4CC(C)OC(C)C4)cc3)c2c1)c1cccs1 (stereo not shown) [Example 96, 3-(4-(2,6-Dimethylmorpholino)benzamido)-N-(1-(thiophen-2-yl)propyl)-1H-indazole-5-carboxamide 2,2,2-trifluoroacetate]	0.047	0.0051
CCC(NC(=O)c1ccc2[nH]nc(NC(=O)c3ccc(N4CCN[C@@H](C)C4)cc3)c2c1)c1cccs1 (stereo partly drawn) [Example 97, 3-(4-((S)-3-Methylpiperazin-1-yl)benzamido)-N-(1-(thiophen-2-yl)propyl)-1H-indazole-5-carboxamide 2,2,2-trifluoroacetate]	0.016	0.0028
CCC(NC(=O)c1ccc2[nH]nc(NC(=O)c3ccc(N4CCN[C@H](C)C4)cc3)c2c1)c1cccs1 (stereo partly drawn) [Example 98, 3-(4-((R)-3-Methylpiperazin-1-yl)benzamido)-N-(1-(thiophen-2-yl)propyl)-1H-indazole-5-carboxamide 2,2,2-trifluoroacetate]	0.023	0.003
